Source: ChEMBL document CHEMBL4229469, “Small molecule scaffolds that disrupt the Rev1-CT/RIR protein-protein interaction” (Bioorg Med Chem, 2018)
Converted amounts (≈) assume the structure as drawn. The source made the active and inactive calls. The rule behind the calls is not given here.

What was measured:
[1] = Growth inhibition of cisplatin-resistant human U2OS cells after 72 hrs by MTS assay; assay type: cell-based
[2] = molecular target: T1, DNA repair protein REV1 (Homo sapiens) (UniProt Q9UBZ9); experiment: Displacement of FAM-labelled polkappa-RIR peptide from recombinant human C-terminal Rev1 (1158 to 1251 residues) expressed in Escherichia coli BL21(DE3) at 10 uM after 1 hr by fluorescence polarization assay relative to control
T1 sequence (whole entry): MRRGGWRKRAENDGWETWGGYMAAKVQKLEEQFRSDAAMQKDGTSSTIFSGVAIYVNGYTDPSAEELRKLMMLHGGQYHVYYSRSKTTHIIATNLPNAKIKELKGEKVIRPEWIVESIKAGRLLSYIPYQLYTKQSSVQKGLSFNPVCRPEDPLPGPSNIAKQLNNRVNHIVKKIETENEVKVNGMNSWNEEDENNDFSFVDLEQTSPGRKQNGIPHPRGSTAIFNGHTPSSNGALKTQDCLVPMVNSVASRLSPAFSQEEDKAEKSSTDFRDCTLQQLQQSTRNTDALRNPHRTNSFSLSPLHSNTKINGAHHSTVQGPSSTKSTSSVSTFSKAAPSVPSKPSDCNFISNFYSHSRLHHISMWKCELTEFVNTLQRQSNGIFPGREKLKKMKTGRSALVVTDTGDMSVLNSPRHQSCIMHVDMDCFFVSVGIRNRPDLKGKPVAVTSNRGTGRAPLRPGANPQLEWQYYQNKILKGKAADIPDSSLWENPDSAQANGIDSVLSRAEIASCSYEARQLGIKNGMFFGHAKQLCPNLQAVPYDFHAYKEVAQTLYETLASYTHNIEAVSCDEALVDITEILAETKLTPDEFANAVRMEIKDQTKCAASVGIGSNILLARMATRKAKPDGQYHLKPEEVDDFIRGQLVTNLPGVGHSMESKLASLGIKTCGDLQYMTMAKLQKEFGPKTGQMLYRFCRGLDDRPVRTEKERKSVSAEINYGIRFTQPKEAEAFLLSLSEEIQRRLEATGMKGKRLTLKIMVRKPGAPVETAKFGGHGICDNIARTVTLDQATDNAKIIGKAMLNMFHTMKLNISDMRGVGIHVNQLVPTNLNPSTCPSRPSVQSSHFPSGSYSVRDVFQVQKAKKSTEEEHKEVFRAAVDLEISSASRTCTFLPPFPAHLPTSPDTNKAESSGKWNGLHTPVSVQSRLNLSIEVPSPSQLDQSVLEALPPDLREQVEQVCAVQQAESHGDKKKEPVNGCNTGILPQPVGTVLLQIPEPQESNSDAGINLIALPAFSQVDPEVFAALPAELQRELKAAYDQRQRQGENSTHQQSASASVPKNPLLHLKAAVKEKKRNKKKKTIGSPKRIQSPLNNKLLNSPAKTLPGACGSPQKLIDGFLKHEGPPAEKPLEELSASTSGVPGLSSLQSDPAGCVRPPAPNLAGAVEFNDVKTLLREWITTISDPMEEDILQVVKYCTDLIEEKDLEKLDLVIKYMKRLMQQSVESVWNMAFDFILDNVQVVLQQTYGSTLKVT

[3] = molecular target: T2, DNA repair protein REV1 (Homo sapiens, UniProt Q9UBZ9); experiment: Displacement of FAM-labelled polkappa-RIR peptide from recombinant human C-terminal Rev1 (1158 to 1251 residues) expressed in Escherichia coli BL21(DE3) after 1 hr by fluorescence polarization assay
T2 sequence (Q9UBZ9 whole entry): T1 sequence (whole entry)

[4] = test system: U2OS; experiment: Potentiation of cisplatin-induced cytotoxicity in cisplatin-resistant human U2OS cells assessed as cisplatin GI50 at 50 uM after 72 hrs by MTS assay (reference value: 23.9 +/- 1.9 uM); assay type: functional
[5] = test system: U2OS; experiment: Potentiation of cisplatin-induced cytotoxicity in cisplatin-resistant human U2OS cells assessed as cisplatin GI50 at 25 uM after 72 hrs by MTS assay (reference value: 23.9 +/- 1.9 uM); assay type: functional
[6] = Retention time of the compound in human liver microsomes at 10 uM by LC-MS/MS analysis; assay type: ADME, microsome
[7] = test system: U2OS; experiment: Potentiation of cisplatin-induced cytotoxicity in cisplatin-resistant human U2OS cells assessed as increase in cisplatin-induced reduction in colony survival at 20 uM treated for 24 hrs measured after 7 days by Coomassie Brilliant Blue R-250 staining based assay; assay type: functional, cell-based
[8] = test system: U2OS; experiment: Potentiation of cisplatin-induced cytotoxicity in cisplatin-resistant human U2OS cells assessed as cisplatin GI50 at 10 uM after 72 hrs by MTS assay (reference value: 23.9 +/- 1.9 uM); assay type: functional
[9] = Ratio of solubility in pH 7.4 phosphate buffered saline to pH 4 phosphate buffered saline; assay type: physicochemical; conditions: buffer
[10] = Drug metabolism in human liver microsomes assessed as oxidation and dehydrogenation at 10 uM after 30 to 60 mins by LC-MS/MS analysis; assay type: ADME, microsome
[11] = Drug metabolism in human liver microsomes assessed as dehydrogenation at 10 uM after 30 to 60 mins by LC-MS/MS analysis; assay type: ADME, microsome
[12] = Solubility of the compound in pH 7.4 phosphate buffered saline
[13] = Solubility of the compound in pH 4 phosphate buffered saline
[14] = Drug metabolism in human liver microsomes assessed as oxidation at 10 uM after 30 to 60 mins by LC-MS/MS analysis; assay type: ADME, microsome
[15] = Drug metabolism in human liver microsomes assessed as hydrolysis by measuring methyl 2-(piperidine-4-carboxamido)-5-propylthiophene-3-carboxylate formation at 10 uM after 30 to 60 mins by LC-MS/MS analysis; assay type: ADME, microsome
[16] = Permeability of the compound by PAMPA; assay type: ADME
[17] = Intrinsic clearance in human liver microsomes at 1 uM; assay type: ADME, microsome
[18] = Stability of the compound in pH 7.4 phosphate buffered saline assessed as parent compound remaining at 5 uM; assay type: physicochemical; conditions: read-out: Stability
[19] = Drug metabolism in human liver microsomes assessed as demethylation by measuring 2-(1-acetylpiperidine-4-carboxamido)-5-propylthiophene-3-carboxylic acid formation at 10 uM after 30 to 60 mins by LC-MS/MS analysis; assay type: ADME, microsome

inhibition [2] [%] | IC50 [3] [µM] | Kd [3] [µM] | Ki [3] [µM] | SMILES | GI50 at 72 h [1] [µM] | GI50 [4] [µM] | other results
> 85 | 5.5 | 3.6 | 3.6 | CCc1ccc(NC(=O)CN2CCN(c3ccc(OC)cc3)CC2)cc1 | – | – | –
> 85 | 5.9 | 7.8 | 11.6 | CCCc1cc(C(=O)OCC)c(NC(=O)C2CCN(C(C)=O)CC2)s1 | – | – | –
> 85 | 13.2 | 12.6 | 15.7 | CC(=O)N1CCC(C(=O)Nc2sc3c(c2C(N)=O)CCC(C)C3)CC1 (stereo not drawn) | – | – | –
> 85 | 12.3 | 18.2 | 19 | CC(C)(C)C(=O)N1CCN(c2ccc(NC(=O)c3cccnc3)cc2Cl)CC1 | > 100 | 25.9 | –
> 85 | 2.5 | 6.5 | 6.9 | CCc1ccc(NC(=O)CN2CCN(c3ccc(F)cc3)CC2)cc1 | – | – | –
> 85 | > 50 | 49.5 | – | CCc1ccc(NC(=O)CN2CCN(c3ccccc3)CC2)cc1 | – | – | –
> 85 | 4.6 | 6.9 | 8.9 | CCn1c2ccccc2c2cc(NC(=O)N3CCC(C(C)=O)CC3)ccc21 | – | – | –
– | – | – | – | CCCc1cc(C(=O)O)c(NC(=O)C2CCN(C(C)=O)CC2)s1 | – | – | Retention_time [6]: 3.8 min
> 85 | 21.1 | 12.4 | 14.8 | Cc1cccc(N2CCN(CC(=O)Nc3ccc(F)cc3)CC2)c1C | – | – | –
> 85 | 21.5 | 26.6 | 31.5 | CC(=O)N1CCC(C(=O)Nc2sc3c(c2C(=O)NC2CC2)CCCC3)CC1 | – | – | –
> 85 | 9.4 | 8.2 | 7.4 | COC(=O)c1cc(C)sc1NC(=O)C1CCN(C(C)=O)CC1 | – | – | –
> 85 | 4.6 | 4.3 | 4.7 | CCS(=O)(=O)N(C)c1ccc(C(=O)N2CCN(c3ccccc3OC)CC2)cc1 | > 100 | 11.9 | GI50 [5]: 13.3 µM
> 85 | 12.4 | 23.7 | 28.8 | CCc1cc(C(=O)OC)c(NC(=O)C2CCN(C(C)=O)CC2)s1 | – | – | –
> 85 | 2.5 | 4.4 | 4.6 | CC(=O)N1CCC(C(=O)Nc2sc3c(c2C(=O)NC2CC2)CCC(C)C3)CC1 (stereo not drawn) | > 100 | 15.3 | Activity [7]: inactive; GI50 [5]: 24.4 µM
– | – | – | – | CCCc1cc(C(=O)OC)c(NC(=O)C2CCNCC2)s1 | – | – | Retention_time [6]: 10.58 min
> 85 | > 50 | 109 | – | N#Cc1ccc(NC(=O)CN2CCN(c3ccc(F)cc3)CC2)cc1 | – | – | –
> 85 | 4.9 | 9.5 | 11.9 | CCCC1CCc2c(sc(NC(=O)C3CCN(C(C)=O)CC3)c2C(N)=O)C1 (stereo not drawn) | – | – | –
> 85 | 11.9 | 12.6 | 14.5 | COc1cc2c(cc1OC)CN(Cc1ccc(OCc3ccccc3)cc1)CC2 | > 100 | 10.1 | Activity [7]: Active; GI50 [8]: 16.5 µM; GI50 [5]: 13.4 µM
> 85 | 28 | 42.2 | 46.6 | O=C(CN1CCN(c2ccc(F)cc2)CC1)Nc1ccccc1 | – | – | –

SMILES | inhibition [2] [%] | IC50 [3] [µM] | Kd [3] [µM] | Ki [3] [µM] | GI50 at 72 h [1] [µM] | GI50 [4] [µM] | other results
Cc1ccc(C(=O)N2CCN(c3ccccc3)CC2)cc1S(=O)(=O)N1CCOCC1 | > 85 | 3.5 | 2.9 | 3 | > 100 | 28.2 | –
CCCCc1ccc(-n2nnc(C(=O)N(C)C3CCS(=O)(=O)C3)c2C)cc1 (stereo not drawn) | > 85 | 5.9 | 3.6 | 4.9 | > 100 | 20.1 | GI50 [5]: 25.7 µM
COc1ccc(OC)c(-c2csc(N3CCN(C(=O)c4ccco4)CC3)n2)c1 | > 85 | 6.2 | 3.7 | 4.8 | > 100 | 11.8 | GI50 [5]: 11.9 µM
CC(=O)C(C)n1c(CN2CCN(c3cccc(Cl)c3)CC2)nc2c1c(=O)n(C)c(=O)n2C (stereo not drawn) | > 85 | 2.5 | 2.1 | 2 | > 100 | 7.8 | GI50 [8]: 19.3 µM; GI50 [5]: 12.3 µM
CCCc1cc(C(=O)OC)c(NC(=O)C2CCN(C(C)=O)CC2)s1 | > 85 | 4.1 | 3.5 | 3.6 | > 100 | 19.6 | Ratio [9]: 3; Drug metabolism [10]: Metabolite_Detected; Drug metabolism [11]: Metabolite_Detected; solubility [12]: 63.3 µM (≈ 22.3 µg/mL); solubility [13]: 21.1 µM (≈ 7.44 µg/mL); Drug metabolism [14]: Metabolite_Detected; Drug metabolism [15]: Metabolite_Detected; log(permeability) [16]: -4.5; GI50 [5]: 12.6 µM; CLH [17]: 18.8 µL/min/mg; remaining at 5 µM [18]: 95%; Drug metabolism [19]: Metabolite_Detected
